Experimental data published in patent US6495591B1, “Fungal efflux pump inhibitors” (Essential Therapeutics, Inc., priority 1997, dated 2002).
Converted amounts (≈) assume the structure as drawn.

Legend:
Test in all cases: microbe, parasite or virus in culture
Type in all cases: cell-based
[1] = system: S. cerevisiae YEM-1 (CDR1 introduced); settings: YEM-1, CDR1; milbemycin β1 […]
[2] = system: S. cerevisiae YEM-37 (CDR2 introduced)
[3] = system: S. cerevisiae YEM-39 (CgCDR introduced)
[4] = system: S. cerevisiae YEM-2 (BEN introduced); settings: YEM-2, BEN; milbemycin β1 […]
[5] = system: S. cerevisiae YEM-40 (CgCDR, MF, introduced)
[6] = system: S. cerevisiae YEM-38 (FLU1 introduced)
[7] = system: C. albicans YEM-11 (BEN overexpressor)
[8] = system: C. albicans YEM-13 (BEN overexpressor)
[9] = system: C. albicans YEM-15 (CDR1 and CDR2 overexpressor)
[10] = system: C. albicans YEM-5 (CDR1 and CDR2 overexpressor)
[11] = system: S. cerevisiae YEM-3 (no efflux pump introduced); settings: Saccharomyces cerevisiae, read-out: MIC Flu alone
[12] = system: C. albicans YEM-15 (CDR1 & CDR2 overexpressor)
[13] = system: C. glabrata YEM-19 (CgCDR overexpressor)
[14] = Saccharomyces cerevisiae, read-out: MIC Flu alone
[15] = Candida albicans, read-out: MIC Flu alone

In the case of CO[C@H]1C[C@@]2(O)/C(CO)=C/C=C/[C@H](C)C/C(C)=C/C[C@@H]3C[C@@H](C[C@]4(CC[C@H](C)[C@@H](C)O4)O3)OC(=O)[C@@H]2C=C1C [Compound 6, Milbemycin β1], the MIC of fluconazole, Flu + Mb ([…]) [1] is reported as 0.25 µg/mL, the MIC of fluconazole, Flu + Mb ([…]) ([2]; YEM-37, CDR2, milbemycin β1 […]) is reported as 0.25 µg/mL and the MIC of fluconazole, Flu + Mb ([…]) ([3]; YEM-39, CgCDR, milbemycin β1 […]) is reported as 1 µg/mL. The MIC of fluconazole, Flu + Mb ([…]) [4] was 128 µg/mL, the MIC of fluconazole, Flu + Mb ([…]) ([5]; YEM-40, CgCDR (MF), milbemycin β1 […]) was 16 µg/mL and the MIC of fluconazole, Flu + Mb ([…]) ([6]; YEM-38, FLU1, milbemycin β1 […]) was 4 µg/mL. For the same molecule, the “MIC of fluconazole, Flu + Mb (2.5 μg/ml)” value ([7]; YEM-11, milbemycin β1 2.5 μg/ml) was 32 µg/mL, the “MIC of fluconazole, Flu + Mb (2.5 μg/ml)” value ([8]; YEM-13, milbemycin β1 2.5 μg/ml) was 32 µg/mL and the “MIC of fluconazole, Flu + Mb (2.5 μg/ml)” value ([9]; YEM-15, milbemycin β1 2.5 μg/ml) was 1 µg/mL. The “MIC of fluconazole, Flu + Mb (2.5 μg/ml)” value ([10]; YEM-5, milbemycin β1 2.5 μg/ml) was 8 µg/mL.

OC(Cn1cncn1)(Cn1cncn1)c1ccc(F)cc1F [Fluconazole, fluconazole, reference compound] gave an MIC [11] of 0.25 µg/mL (≈ 0.816 µM), an MIC [2, 14] of 2 µg/mL (≈ 6.53 µM) and an MIC [3, 14] of 32 µg/mL (≈ 104 µM). For the same molecule, the MIC [5, 14] was 16 µg/mL (≈ 52.2 µM), the MIC [6, 14] was 4 µg/mL (≈ 13.1 µM) and the MIC [7, 15] was 32 µg/mL (≈ 104 µM). The MIC [8, 15] was 32 µg/mL (≈ 104 µM), the MIC [9, 15] was 128 µg/mL (≈ 418 µM) and the MIC [10, 15] was greater than 128 µg/mL. It also gave an MIC [12, 15] of 128 µg/mL (≈ 418 µM) and an MIC ([13]; Nakaseomyces glabratus, read-out: MIC Flu alone) greater than 128 µg/mL.

With Milbemycin oxime [Compound 2] the “MIC of fluconazole, Flu + McOxm (2.5 μg/ml)” value [12] was 0.25 µg/mL and the “MIC of fluconazole, Flu + McOxm (2.5 μg/ml)” value [13] was 128 µg/mL.
